The values below are quoted from earlier work in patent US10753947B2, “Methods for screening voltage-gated proteins” (D.E. Shaw Research, LLC, priority 2012, dated 2020).

Read-outs that look alike come from different tables or passages of the source. Bounds are passed on as bounds.

The target of series [1] is Kv1.3 (Homo sapiens, UniProt P22001). The note with it: cited from earlier work.
For series [2], the target named is KCa3.1 (Homo sapiens, UniProt O15554). Conditions: Table 4; cited from earlier work.
The target in series [3] is Kv1.5 (Homo sapiens, UniProt P22460). Conditions: Table 4; cited from earlier work.
Series [4] addresses Kv1.2 (Homo sapiens, UniProt P16389). The note with it: Table 4; read-out: IC50 Kv1.2; cited from earlier work.
For series [5], the system named is Nav. Conditions: Table 4; read-out: IC50 Others: Nav; cited from earlier work.
Series [6] concerns the target Kv1.1 (Homo sapiens, UniProt Q09470). Conditions: Table 4; read-out: IC50 Kv1.1; cited from earlier work.
Series [7] addresses T1, Kv3.2 (Homo sapiens, UniProt Q96PR1).
T1 sequence (Q96PR1 1-638): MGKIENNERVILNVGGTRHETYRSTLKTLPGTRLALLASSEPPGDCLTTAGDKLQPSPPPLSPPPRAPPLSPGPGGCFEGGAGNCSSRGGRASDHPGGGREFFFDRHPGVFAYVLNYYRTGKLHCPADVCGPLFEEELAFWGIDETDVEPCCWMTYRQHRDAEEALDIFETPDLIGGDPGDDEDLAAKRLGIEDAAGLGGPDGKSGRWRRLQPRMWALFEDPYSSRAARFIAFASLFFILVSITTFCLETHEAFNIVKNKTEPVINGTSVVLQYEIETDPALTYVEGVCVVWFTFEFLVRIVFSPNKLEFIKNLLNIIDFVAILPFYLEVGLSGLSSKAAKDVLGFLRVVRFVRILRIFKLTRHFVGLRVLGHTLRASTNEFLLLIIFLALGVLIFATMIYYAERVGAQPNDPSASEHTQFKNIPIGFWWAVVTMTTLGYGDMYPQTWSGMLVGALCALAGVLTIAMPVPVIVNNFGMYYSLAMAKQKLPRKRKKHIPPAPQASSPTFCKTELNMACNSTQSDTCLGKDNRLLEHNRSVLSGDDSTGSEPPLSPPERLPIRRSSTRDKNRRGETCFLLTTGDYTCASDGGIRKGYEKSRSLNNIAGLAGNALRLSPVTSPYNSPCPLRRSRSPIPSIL
Conditions: Table 4; read-out: IC50 Others: Kv3.2; cited from earlier work.

The target in series [8] is Kv1.4 (Homo sapiens, UniProt P22459). The note with it: Table 4; read-out: IC50 Others: Kv1.4; cited from earlier work.
The mark [9] stands for this setting: Table 2, modulating Kv1.3 ion conductance, read-out: IC50.

Chain of Kv1.3 (P22001 whole entry): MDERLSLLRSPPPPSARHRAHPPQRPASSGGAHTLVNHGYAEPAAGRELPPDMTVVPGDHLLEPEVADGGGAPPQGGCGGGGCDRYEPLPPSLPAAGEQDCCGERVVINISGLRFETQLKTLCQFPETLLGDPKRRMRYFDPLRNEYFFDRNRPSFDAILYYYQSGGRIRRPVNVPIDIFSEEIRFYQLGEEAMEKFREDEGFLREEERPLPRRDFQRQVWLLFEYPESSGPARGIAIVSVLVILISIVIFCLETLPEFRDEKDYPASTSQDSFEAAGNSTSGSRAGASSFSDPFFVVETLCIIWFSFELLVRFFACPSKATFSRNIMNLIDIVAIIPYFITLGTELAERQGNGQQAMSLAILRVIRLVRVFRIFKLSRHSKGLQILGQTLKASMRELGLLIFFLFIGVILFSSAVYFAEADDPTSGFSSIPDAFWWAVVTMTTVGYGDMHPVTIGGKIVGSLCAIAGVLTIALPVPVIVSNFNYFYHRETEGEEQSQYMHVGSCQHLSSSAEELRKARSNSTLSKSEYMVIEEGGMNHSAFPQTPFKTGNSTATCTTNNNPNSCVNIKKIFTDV
Chain of Kv1.2 (P16389 whole entry): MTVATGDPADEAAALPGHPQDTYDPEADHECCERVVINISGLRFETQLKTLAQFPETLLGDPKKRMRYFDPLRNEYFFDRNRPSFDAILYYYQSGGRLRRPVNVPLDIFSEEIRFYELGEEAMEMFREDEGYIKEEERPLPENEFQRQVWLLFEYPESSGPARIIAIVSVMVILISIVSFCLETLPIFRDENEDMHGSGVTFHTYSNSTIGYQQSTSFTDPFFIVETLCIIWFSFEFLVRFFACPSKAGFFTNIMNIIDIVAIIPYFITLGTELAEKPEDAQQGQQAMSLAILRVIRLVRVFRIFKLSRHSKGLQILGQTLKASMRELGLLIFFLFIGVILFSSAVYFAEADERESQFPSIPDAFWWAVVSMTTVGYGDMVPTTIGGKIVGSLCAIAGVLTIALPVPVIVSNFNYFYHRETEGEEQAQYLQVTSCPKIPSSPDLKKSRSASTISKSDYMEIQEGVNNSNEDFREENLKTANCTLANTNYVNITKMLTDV
Chain of Kv1.5 (P22460 whole entry): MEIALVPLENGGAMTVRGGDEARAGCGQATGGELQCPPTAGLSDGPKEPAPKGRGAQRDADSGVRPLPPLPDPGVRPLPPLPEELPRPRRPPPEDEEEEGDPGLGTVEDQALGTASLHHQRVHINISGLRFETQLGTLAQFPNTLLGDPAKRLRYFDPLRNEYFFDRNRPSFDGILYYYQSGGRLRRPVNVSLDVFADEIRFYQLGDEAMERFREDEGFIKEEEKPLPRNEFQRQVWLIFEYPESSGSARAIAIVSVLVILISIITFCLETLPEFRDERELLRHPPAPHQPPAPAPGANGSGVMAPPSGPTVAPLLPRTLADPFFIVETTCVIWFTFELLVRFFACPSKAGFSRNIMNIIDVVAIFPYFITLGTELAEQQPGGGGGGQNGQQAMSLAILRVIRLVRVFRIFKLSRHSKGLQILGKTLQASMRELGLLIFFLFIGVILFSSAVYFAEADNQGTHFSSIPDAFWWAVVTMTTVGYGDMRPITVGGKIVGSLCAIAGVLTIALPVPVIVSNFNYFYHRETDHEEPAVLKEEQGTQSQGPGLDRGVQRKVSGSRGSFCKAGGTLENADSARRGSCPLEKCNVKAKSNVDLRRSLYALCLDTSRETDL
Chain of Kv1.1 (Q09470 whole entry): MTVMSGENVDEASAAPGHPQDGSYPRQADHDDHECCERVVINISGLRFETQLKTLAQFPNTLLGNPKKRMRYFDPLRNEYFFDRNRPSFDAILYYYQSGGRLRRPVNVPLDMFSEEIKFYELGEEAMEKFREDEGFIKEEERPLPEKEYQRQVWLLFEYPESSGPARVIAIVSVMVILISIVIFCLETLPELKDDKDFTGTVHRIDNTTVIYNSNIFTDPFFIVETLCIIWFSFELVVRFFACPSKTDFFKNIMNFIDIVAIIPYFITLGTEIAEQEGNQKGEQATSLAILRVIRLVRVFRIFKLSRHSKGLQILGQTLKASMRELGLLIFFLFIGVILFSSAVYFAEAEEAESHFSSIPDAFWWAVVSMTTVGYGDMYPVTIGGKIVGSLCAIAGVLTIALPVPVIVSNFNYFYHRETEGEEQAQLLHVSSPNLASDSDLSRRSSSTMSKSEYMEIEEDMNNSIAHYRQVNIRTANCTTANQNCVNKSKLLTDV
Chain of KCa3.1 (O15554 whole entry): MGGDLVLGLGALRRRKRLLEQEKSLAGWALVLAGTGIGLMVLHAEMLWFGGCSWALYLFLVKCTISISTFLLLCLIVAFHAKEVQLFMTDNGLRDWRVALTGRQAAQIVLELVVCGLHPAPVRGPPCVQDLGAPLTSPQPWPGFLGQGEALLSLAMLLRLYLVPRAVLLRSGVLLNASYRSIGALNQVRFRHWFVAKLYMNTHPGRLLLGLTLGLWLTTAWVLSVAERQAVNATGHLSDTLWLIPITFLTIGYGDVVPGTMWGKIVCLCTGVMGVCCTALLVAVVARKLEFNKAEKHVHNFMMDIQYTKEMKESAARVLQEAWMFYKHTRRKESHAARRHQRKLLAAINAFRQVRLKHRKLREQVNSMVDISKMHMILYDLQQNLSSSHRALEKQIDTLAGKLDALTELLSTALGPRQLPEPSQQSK
Chain of Kv1.4 (P22459 whole entry): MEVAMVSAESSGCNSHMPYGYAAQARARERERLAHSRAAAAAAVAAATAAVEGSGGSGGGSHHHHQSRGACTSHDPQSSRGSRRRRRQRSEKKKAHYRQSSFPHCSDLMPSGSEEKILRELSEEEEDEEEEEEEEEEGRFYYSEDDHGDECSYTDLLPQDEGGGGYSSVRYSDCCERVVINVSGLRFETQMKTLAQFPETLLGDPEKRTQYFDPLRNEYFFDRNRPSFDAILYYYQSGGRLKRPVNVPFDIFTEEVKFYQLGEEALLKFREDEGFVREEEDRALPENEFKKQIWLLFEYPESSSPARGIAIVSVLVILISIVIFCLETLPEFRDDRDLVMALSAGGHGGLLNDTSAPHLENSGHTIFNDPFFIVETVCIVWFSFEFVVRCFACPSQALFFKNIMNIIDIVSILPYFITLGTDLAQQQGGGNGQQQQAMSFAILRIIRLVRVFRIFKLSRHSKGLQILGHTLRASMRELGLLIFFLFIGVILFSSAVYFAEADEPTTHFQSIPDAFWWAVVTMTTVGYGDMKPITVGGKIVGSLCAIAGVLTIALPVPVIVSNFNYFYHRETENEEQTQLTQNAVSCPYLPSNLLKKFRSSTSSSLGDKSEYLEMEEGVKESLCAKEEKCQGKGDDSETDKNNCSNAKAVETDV

Consider `CCCCC/N=c1\ccn(Cc2ccccc2)c2ccccc12` [CP-339818], for which the IC50 in series [1] (setting [9]) is 150 nM; in series [1] (Table 4, read-out: IC50 Kv1.3), 230 nM; in series [2], > 500000 nM; in series [3], 19000 nM; in series [4], 14000 nM; in series [5], 10 nM. Further, in series [6], the IC50 is 62000 nM.
Regarding `COc1ccc(CCCN2CCC(COC(c3ccccc3)c3ccccc3)CC2)cc1` [UK-78282], the IC50 in series [1] (setting [9]) is 200 nM; in series [2] it was > 30000 nM; in series [3] it was 70 nM; in series [4], 2900 nM; in series [7] it was 127000 nM; in series [6] it was 22000 nM. In addition, the half-inhibitory concentration (IC50) in series [8] is 300 nM.

The IC50 is the midpoint of a concentration-inhibition curve.
